Read-outs that look alike come from different tables or passages of the source.
Assays:
EGFR Exon19Del = biological target: T1, EGFR Exon19Del (Homo sapiens, UniProt P00533, DEL746-750); test: Inhibition of EGFR Exon19Del biochemical enzymatic activity (HTRF); settings: read-out: IC50 @Del19
T1 construct: purchased Carna Bio
In short: (§1)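 Read-out is the HTRF 665/615 nm ratio (excitation 320 nm), taken as proportional to kinase activity after a 1 h room-temperature reaction with 1 mM ATP and 1 μM biotinylated TK substrate. IC50 values derive from four-parameter logistic fitting.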

EGFR[T790M/C797S/L858R] = biological target: T2, EGFR[T790M/C797S/L858R] (Homo sapiens, UniProt P00533, C797S/L858R/T790M); test: Inhibition of EGFR[T790M/C797S/L858R] biochemical enzymatic activity (HTRF); settings: 1 mM ATP
T2 construct: purchased Carna Bio
In short: as §1

EGFR L858R = biological target: T3, EGFR L858R (Homo sapiens, UniProt P00533, L858R); test: Inhibition of EGFR L858R biochemical enzymatic activity (HTRF); settings: 1 mM ATP
T3 construct: purchased Carna Bio
In short: as §1

EGFR (C797S L858R) = biological target: T4, EGFR (C797S L858R) (Homo sapiens, UniProt P00533, C797S/L858R); test: Inhibition of EGFR (C797S L858R) biochemical enzymatic activity (HTRF); settings: 1 mM ATP
T4 construct: purchased signalchem
In short: as §1

EGFR wild type = biological target: T5, EGFR wild type (Homo sapiens, UniProt P00533); test: Inhibition of EGFR wild type biochemical enzymatic activity (HTRF); settings: 1 mM ATP
T5 construct: purchased Carna Bio
In short: as §1

PC-9 = test: Cell proliferation assay, PC-9 cells (CellTiter-Glo, 72 hours); type: cell-based; settings: Homo sapiens, PC-9, 72 h, PC9 cells, read-out: GI50 PC9
In short: (§2)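 Ba/F3 cells (5000/well) and PC-9 cells (500/well, RPMI1640 with 10% FBS) were plated overnight and then dosed with a compound concentration series. Viable cells were read at day 0 (G0) and after treatment (G3). GI50 came from curve fits of G0-corrected proliferation relative to DMSO.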

[1] = biological target: T6, EGFR[T790M/C797S/d746-750] (Homo sapiens, UniProt P00533, C797S/DEL746-750/T790M); test: Inhibition of EGFR[T790M/C797S/d746-750] biochemical enzymatic activity (HTRF)
T6 construct: purchased Carna Bio
In short: as §1

EGFR Exon19Del/T790M = biological target: T7, EGFR Exon19Del/T790M (Homo sapiens, UniProt P00533, DEL746-750/T790M); test: Inhibition of EGFR Exon19Del/T790M biochemical enzymatic activity (HTRF); settings: 1 mM ATP
T7 construct: purchased Carna Bio
In short: as §1

EGFR (d746-750 C797S) = biological target: T8, EGFR (d746-750 C797S) (Homo sapiens, UniProt P00533, C797S/DEL746-750); test: Inhibition of EGFR (d746-750 C797S) biochemical enzymatic activity (HTRF); settings: 1 mM ATP
T8 construct: purchased signalchem
In short: as §1

A-431 = test: Cell proliferation assay, A-431 cells (GI50, Table 6); type: cell-based; settings: Homo sapiens, A-431, A-431 cells
EGFR L858R/T790M = biological target: T9, EGFR L858R/T790M (Homo sapiens, UniProt P00533, L858R/T790M); test: Inhibition of EGFR L858R/T790M biochemical enzymatic activity (HTRF); settings: 1 mM ATP
T9 construct: purchased Carna Bio
In short: as §1

[2] = system: Ba/F3 cells expressing EGFR mutations; test: Cell proliferation assay, Ba/F3 cells expressing EGFR mutations (CellTiter-Glo, 72 hours); type: cell-based; settings: Mus musculus, BaF3, 72 h
In short: as §2

[3] = BaF3 cells, EGFR DEL19 - C797S, read-out: GI50 DEL19 - C797S/BaF3
[4] = BaF3 cells, EGFR DEL19 - T790-C797S, read-out: GI50 DEL19 - T790-C797S/BaF3
[5] = BaF3 cells, EGFR L858R - C797S, read-out: GI50 L858R - C797S/BaF3
[6] = BaF3 cells, EGFR L858R - T790-C797S, read-out: GI50 L858R - T790-C797S/BaF3
[7] = BaF3 cells, EGFR L858R - T790M, read-out: GI50 L858R - T790M/BaF3
[8] = BaF3 cells, EGFR L858R, read-out: GI50 L858R/BaF3
[9] = EGFR DEL19 - T790M, read-out: GI50 DEL19 - T790M
[10] = EGFR Exon19Del, 1 mM ATP, 1 h at room temperature
[11] = EGFR[T790M/C797S/L858R], 1 h at room temperature, read-out: IC50 @T790M- C797S - L858R
[12] = 1 h at room temperature, read-out: IC50 @L858R
[13] = EGFR (C797S L858R), 1 h at room temperature, read-out: IC50 @L858-C797S
[14] = EGFR wild type, 1 h at room temperature, read-out: IC50 @WT
[15] = EGFR[T790M/C797S/d746-750], 1 mM ATP, 1 h at room temperature, read-out: IC50 @T790M - C797S - Del19
[16] = EGFR Exon19Del/T790M, 1 h at room temperature, read-out: IC50 @Del19-T790M
[17] = EGFR (d746-750 C797S), 1 h at room temperature, read-out: IC50 @Del19-C797S
[18] = EGFR L858R/T790M, 1 h at room temperature, read-out: IC50 @L858R-T790M

T7 sequence (P00533 with tags, fused parts or gaps DEL746-750/T790M limits assumed): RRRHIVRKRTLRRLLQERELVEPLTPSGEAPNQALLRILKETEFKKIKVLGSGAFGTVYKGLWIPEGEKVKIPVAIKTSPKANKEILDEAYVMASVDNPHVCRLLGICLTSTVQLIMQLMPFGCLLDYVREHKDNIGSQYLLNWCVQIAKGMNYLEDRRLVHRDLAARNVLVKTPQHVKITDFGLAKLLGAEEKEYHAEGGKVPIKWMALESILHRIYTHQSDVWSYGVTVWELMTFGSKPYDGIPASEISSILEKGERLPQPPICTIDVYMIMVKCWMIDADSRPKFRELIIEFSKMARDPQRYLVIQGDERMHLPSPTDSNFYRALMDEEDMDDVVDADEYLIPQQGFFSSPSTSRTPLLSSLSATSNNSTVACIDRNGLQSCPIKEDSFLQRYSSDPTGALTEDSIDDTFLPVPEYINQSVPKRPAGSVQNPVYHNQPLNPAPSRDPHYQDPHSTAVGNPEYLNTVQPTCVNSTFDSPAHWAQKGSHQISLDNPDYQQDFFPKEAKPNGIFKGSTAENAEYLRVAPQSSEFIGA
T8 sequence (P00533 with tags, fused parts or gaps DEL746-750/C797S limits assumed): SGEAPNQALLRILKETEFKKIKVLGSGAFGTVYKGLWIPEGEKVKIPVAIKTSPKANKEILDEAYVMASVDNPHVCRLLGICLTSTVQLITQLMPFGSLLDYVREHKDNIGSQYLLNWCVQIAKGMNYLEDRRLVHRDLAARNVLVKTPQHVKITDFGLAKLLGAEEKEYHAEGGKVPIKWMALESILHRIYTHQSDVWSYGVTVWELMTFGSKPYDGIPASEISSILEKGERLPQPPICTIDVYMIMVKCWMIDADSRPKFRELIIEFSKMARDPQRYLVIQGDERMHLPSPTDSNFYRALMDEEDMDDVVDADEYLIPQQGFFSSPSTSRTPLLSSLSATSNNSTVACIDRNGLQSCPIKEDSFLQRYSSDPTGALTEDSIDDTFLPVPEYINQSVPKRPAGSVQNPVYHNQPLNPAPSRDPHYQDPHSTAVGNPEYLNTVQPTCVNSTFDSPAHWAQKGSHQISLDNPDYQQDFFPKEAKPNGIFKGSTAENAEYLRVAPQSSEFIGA
T6 sequence (P00533 with tags, fused parts or gaps DEL746-750/T790M/C797S limits assumed): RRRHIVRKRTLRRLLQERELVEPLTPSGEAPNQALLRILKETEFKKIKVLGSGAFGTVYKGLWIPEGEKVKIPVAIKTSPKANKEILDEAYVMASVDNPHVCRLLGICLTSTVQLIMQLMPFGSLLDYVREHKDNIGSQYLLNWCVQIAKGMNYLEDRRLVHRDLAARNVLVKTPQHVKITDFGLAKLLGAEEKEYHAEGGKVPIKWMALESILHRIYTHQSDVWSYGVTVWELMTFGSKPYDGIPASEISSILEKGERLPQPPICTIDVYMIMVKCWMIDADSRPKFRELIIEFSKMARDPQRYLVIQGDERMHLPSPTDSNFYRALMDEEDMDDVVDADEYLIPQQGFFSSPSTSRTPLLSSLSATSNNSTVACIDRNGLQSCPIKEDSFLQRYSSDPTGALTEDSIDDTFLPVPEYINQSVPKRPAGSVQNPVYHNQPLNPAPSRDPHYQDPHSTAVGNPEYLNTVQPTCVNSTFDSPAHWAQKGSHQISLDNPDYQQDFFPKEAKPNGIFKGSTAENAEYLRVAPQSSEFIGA
T1 sequence (P00533 with tags, fused parts or gaps DEL746-750 limits assumed): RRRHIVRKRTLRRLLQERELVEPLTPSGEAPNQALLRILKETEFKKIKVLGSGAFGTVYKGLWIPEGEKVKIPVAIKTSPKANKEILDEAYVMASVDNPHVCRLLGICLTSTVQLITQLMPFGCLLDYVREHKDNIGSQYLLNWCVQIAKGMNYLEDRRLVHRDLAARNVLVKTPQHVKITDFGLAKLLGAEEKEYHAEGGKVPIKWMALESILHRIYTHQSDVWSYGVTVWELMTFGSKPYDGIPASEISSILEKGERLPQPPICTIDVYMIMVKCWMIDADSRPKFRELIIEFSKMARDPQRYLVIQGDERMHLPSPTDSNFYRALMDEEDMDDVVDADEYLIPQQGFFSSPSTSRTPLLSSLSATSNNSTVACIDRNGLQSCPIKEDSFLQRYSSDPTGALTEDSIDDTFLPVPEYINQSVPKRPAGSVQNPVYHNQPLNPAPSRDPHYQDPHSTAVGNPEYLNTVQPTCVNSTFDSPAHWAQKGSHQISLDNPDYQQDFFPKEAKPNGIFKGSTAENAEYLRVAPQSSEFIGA
T4 sequence (P00533 25-1210 C797S/L858R): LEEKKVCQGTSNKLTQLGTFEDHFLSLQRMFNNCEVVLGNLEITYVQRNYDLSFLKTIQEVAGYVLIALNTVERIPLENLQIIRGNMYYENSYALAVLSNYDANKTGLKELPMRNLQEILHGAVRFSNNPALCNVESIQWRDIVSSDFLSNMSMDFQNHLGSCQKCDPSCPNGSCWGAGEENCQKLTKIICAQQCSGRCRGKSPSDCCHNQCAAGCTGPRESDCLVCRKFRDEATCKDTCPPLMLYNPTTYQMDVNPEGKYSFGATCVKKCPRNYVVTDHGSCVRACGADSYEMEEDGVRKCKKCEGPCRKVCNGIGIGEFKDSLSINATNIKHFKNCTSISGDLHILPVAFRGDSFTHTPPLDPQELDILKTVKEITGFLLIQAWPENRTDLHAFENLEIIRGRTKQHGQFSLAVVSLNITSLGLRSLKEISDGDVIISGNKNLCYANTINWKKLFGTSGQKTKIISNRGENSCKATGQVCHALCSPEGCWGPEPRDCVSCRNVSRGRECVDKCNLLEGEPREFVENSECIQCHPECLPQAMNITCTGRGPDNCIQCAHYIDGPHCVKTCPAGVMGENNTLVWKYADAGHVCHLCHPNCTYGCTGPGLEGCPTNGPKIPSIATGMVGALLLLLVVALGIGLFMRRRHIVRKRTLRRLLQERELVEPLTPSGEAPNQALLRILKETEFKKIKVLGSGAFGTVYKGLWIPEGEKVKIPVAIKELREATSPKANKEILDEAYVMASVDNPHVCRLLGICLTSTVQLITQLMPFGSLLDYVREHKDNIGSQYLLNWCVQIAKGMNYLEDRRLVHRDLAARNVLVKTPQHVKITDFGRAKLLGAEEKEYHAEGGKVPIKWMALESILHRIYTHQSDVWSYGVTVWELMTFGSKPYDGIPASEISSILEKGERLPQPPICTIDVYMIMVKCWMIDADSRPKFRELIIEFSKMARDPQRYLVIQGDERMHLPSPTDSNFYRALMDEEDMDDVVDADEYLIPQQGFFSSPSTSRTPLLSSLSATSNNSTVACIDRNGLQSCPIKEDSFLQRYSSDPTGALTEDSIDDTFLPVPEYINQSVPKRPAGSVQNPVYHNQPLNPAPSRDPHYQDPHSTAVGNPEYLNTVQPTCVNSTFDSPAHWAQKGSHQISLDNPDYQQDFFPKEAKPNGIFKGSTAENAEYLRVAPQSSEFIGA
T5 sequence (P00533 25-1210): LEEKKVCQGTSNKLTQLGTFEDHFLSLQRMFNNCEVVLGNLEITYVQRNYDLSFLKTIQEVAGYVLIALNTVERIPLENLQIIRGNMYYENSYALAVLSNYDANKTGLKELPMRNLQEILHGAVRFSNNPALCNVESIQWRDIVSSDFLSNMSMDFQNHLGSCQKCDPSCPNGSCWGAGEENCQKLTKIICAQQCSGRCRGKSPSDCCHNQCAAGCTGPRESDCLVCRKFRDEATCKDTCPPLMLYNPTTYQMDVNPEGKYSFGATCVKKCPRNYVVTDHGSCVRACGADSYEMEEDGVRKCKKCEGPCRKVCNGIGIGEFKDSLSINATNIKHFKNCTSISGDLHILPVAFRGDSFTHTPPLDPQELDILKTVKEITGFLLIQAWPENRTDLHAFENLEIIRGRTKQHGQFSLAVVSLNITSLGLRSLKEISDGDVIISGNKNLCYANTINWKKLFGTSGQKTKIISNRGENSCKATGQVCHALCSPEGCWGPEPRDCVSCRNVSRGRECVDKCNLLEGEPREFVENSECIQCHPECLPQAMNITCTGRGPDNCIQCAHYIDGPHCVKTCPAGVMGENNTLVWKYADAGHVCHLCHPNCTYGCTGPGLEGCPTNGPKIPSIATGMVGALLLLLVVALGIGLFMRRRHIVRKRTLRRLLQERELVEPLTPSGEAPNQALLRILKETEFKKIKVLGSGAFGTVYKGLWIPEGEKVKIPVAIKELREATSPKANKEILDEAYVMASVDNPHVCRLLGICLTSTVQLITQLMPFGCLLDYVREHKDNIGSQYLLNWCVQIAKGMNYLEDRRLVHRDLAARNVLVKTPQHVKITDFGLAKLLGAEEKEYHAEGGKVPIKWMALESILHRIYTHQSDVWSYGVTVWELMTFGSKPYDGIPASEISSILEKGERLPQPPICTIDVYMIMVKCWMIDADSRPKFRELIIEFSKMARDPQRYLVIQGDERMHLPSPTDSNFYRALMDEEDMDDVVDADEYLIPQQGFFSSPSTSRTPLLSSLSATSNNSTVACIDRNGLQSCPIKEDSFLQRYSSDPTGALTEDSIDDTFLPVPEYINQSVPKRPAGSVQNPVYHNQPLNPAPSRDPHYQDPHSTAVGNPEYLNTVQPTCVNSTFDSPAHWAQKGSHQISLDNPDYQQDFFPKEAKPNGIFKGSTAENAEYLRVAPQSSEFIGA

Cc1cc2cc(n1)-c1cnn(C3CC3)c1OCCN(CC(F)(F)F)CCn1c(nc3ccccc31)NC2=O [Example B6, 5-cyclopropyl-26-methyl-10-(2,2,2-trifluoroethyl)-7-oxa-4,5,10,13,20,22,27-heptaazapentacyclo[22.3.1.0^{2,6}.0^{13,21}.0^{14,19}]octacosa-1(27),2(6),3,14,16,18,20,24(28),25-nonaen-23-one]
IC50 (EGFR Exon19Del; EGFR Del19, 1 mM ATP, 1 h, room temperature): 197 nM | IC50 (EGFR[T790M/C797S/L858R]; EGFR T790M-C797S-L858R, 1 h, room temperature, read-out: IC50 (nM) @T790M- C797S - L858R): 3.1 nM | IC50 (EGFR L858R; 1 h, room temperature, read-out: IC50 (nM) @L858R): 1090 nM | IC50 (EGFR (C797S L858R); EGFR L858-C797S, 1 h, room temperature, read-out: IC50 (nM) @L858-C797S): 390 nM | IC50 (EGFR wild type; EGFR WT, 1 h, room temperature, read-out: IC50 (nM) @WT): > 5000 nM | GI50 (PC-9): 145 nM | IC50 ([1]; EGFR T790M-C797S-Del19, 1 mM ATP, 1 h, room temperature, read-out: IC50 (nM) @T790M - C797S - Del19): 3.6 nM | IC50 (EGFR Exon19Del/T790M; EGFR Del19-T790M, 1 h, room temperature, read-out: IC50 (nM) @Del19-T790M): 5.2 nM | IC50 (EGFR (d746-750 C797S); EGFR Del19-C797S, 1 h, room temperature, read-out: IC50 (nM) @Del19-C797S): 112 nM | GI50 (A-431): 2830 nM | IC50 (EGFR L858R/T790M; EGFR L858R-T790M, 1 h, room temperature, read-out: IC50 (nM) @L858R-T790M): 9 nM | GI50 [2, 3]: 62 nM | GI50 [2, 4]: 42 nM | GI50 [2, 5]: 69 nM | GI50 [2, 6]: 7.7 nM | GI50 [2, 7]: 16 nM | GI50 [2, 8]: 35 nM | GI50 [2, 9]: 48 nM

Cc1cc2cc(n1)-c1cnn(C)c1OCCN1CC3CCC(C3)(C1)n1c(nc3ccccc31)NC2=O (stereo not drawn) [Example B8B, 15,21-dimethyl-23-oxa-2,9,11,16,20,21,26-heptaazaheptacyclo[24.4.1.1^{1,28}.1^{13,17}.0^{2,10}.0^{3,8}.0^{18,22}]tritriaconta-3,5,7,9,13,15,17(33),18(22),19-nonaen-12-one]
IC50 (EGFR Exon19Del; [10]): 14 nM | IC50 (EGFR[T790M/C797S/L858R]; [11]): 1 nM | IC50 (EGFR L858R; [12]): 469 nM | IC50 (EGFR (C797S L858R); [13]): 200 nM | IC50 (EGFR wild type; [14]): > 5000 nM | GI50 (PC-9): 63 nM | IC50 [1, 15]: 0.98 nM | IC50 (EGFR Exon19Del/T790M; [16]): 0.95 nM | IC50 (EGFR (d746-750 C797S); [17]): 4.2 nM | GI50 (A-431): 2710 nM | IC50 (EGFR L858R/T790M; [18]): 1.3 nM | GI50 [2, 3]: 4.8 nM | GI50 [2, 4]: 2.1 nM | GI50 [2, 5]: 53 nM | GI50 [2, 6]: 2.4 nM | GI50 [2, 7]: 8.6 nM | GI50 [2, 8]: 72 nM | GI50 [2, 9]: 2.6 nM

Cc1cc2cc(n1)-c1cnn(C)c1OCCN1CC3CCC(C3)(C1)n1c(nc3ccc(N4CCN(C)CC4)cc31)NC2=O (stereo not drawn) [Example B9B, 15,21-Dimethyl-5-(4-methylpiperazin-1-yl)-23-oxa-2,9,11,16,20,21,26-heptaazaheptacyclo[24.4.1.1^{1,28}.1^{13,17}.0^{2,10}.0^{3,8}.0^{18,22}]tritriaconta-3,5,7,9,13,15,17(33),18(22),19-nonaen-12-one]
IC50 (EGFR Exon19Del; [10]): 1.4 nM | IC50 (EGFR[T790M/C797S/L858R]; [11]): 1 nM | IC50 (EGFR L858R; [12]): 7.4 nM | IC50 (EGFR (C797S L858R); [13]): 3.3 nM | IC50 (EGFR wild type; [14]): 114 nM | GI50 (PC-9): 6.1 nM | IC50 [1, 15]: 1.4 nM | IC50 (EGFR Exon19Del/T790M; [16]): 1.3 nM | IC50 (EGFR (d746-750 C797S); [17]): 0.73 nM | GI50 (A-431): 366 nM | IC50 (EGFR L858R/T790M; [18]): 1.1 nM | GI50 [2, 3]: 0.58 nM | GI50 [2, 4]: 0.59 nM | GI50 [2, 5]: 3.2 nM | GI50 [2, 6]: 0.6 nM | GI50 [2, 7]: 0.83 nM | GI50 [2, 8]: 2.7 nM | GI50 [2, 9]: 0.6 nM

Cc1cc2cc(n1)-c1cc(=O)n(C)cc1OCCC[C@@H](C)Cn1c(nc3ccccc31)NC2=O [Example B11, (12R)-5,12,27-Trimethyl-8-oxa-5,14,21,23,28-pentaazapentacyclo[23.3.1.0^{2,7}.0^{14,22}.0^{15,20}]nonacosa-1(29),2,6,15,17,19,21,25,27-nonaene-4,24-dione]
IC50 (EGFR Exon19Del; [10]): > 5000 nM | IC50 (EGFR[T790M/C797S/L858R]; [11]): > 5000 nM | IC50 (EGFR L858R; [12]): > 5000 nM | IC50 (EGFR (C797S L858R); [13]): > 5000 nM | IC50 (EGFR wild type; [14]): > 5000 nM | GI50 (PC-9): 1490 nM | IC50 [1, 15]: 401 nM | IC50 (EGFR Exon19Del/T790M; [16]): 510 nM | IC50 (EGFR (d746-750 C797S); [17]): 4320 nM | GI50 (A-431): 5380 nM | IC50 (EGFR L858R/T790M; [18]): > 5000 nM | GI50 [2, 3]: 626 nM | GI50 [2, 4]: 269 nM | GI50 [2, 5]: 2440 nM | GI50 [2, 6]: 764 nM | GI50 [2, 7]: 2520 nM | GI50 [2, 8]: 3570 nM | GI50 [2, 9]: 441 nM
